Data on 18 molecules can be found in patent publication US20230219956A1 (BETTA PHARMACEUTICALS CO.,LTD, priority 2019, published 2023).

Data set [1] can be described thus: Permeability assay, Caco-2 monolayer cell model. The settings on record: human, Caco-2, compound 5 μM, Verapamil 0 μM; for efflux ratio at 120 min, 5 μM: read-out: RE (Efflux Ratio). Type of data set: in vitro ADME. As to the method: The Caco-2 monolayer cell model was used to determine the bidirectional permeability and efflux rate of the example compounds and the comparative compounds. In the experiment, 50 μL of 6.86×10^5 cells/mL Caco-2 cells (passage 45) were seeded into 96-well cell culture plates, and cultured continuously for 14-18 days for transport experiments. The corresponding compound was administered bidirectionally with or without verapamil (P glycoprotein (P-gp) inhibitor), at a concentration of 5 μM. At 37° C., after incubating with shaking at 150 rpm for 120 minutes, the top and basal samples were collected, and the content of each compound in the samples was determined by liquid chromatography tandem mass spectrometry (LC/MS/MS).
Refer to the Table 4 for permeability data of some compounds in the examples.

The subject of another data set is MIA-PACA-2 cells. Nature of the data set: Cell proliferation assay, MIA-PACA-2 cells (Cell-titer Glo). In kind it is cell-based. Conditions: Homo sapiens, 96 h incubation. The method in brief: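 MIA-PACA-2 cells, 600 per well in ultra-low-attachment plates, exposed 96 h at 37 °C to compound at 0.025–10000 nM final (0.25% DMSO). Viability by CellTiter-Glo luminescence; inhibition normalised to DMSO and cell-free controls, IC50 from curve fit.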

Another data set deals with H358 cells. Description: Cell proliferation assay, H358 cells (Cell-titer Glo). Type of data set: cell-based. The settings on record: Homo sapiens, NCI-H358, 96 h incubation. In outline: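 H358 cells, 2000 per well in ultra-low-attachment plates, treated after overnight culture with compound at 10000 to 1.5 nM plus 0 (0.25% DMSO final) for 96 h at 37 °C, 5% CO2. Cell-titer Glo luminescence, normalised to DMSO and cell-free controls; IC50 from curve fit.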

As for `C=CC(=O)N1CC2(CCN(c3nc(OC4CCN(C5CCOCC5)CC4)nc4c(OCC(F)(F)F)c(-c5c(C)ccc6[nH]ncc56)c(C=C)cc34)CC2)C1` [Compound D1, reference compound], in data set [1], the Papp A→B at 120 min, 5 μM was determined as 0.06 ×10⁻⁶ cm/s; the Papp B→A at 120 min, 5 μM was found to be 6.75 ×10⁻⁶ cm/s; the efflux ratio at 120 min, 5 μM is 113.

`C=CC(=O)N1CC2(CCN(c3nc(C4CCN(C(C)=O)CC4)nc4c(OCC(F)(F)F)c(-c5c(C)ccc6[nH]ncc56)c(C=C)cc34)CC2)C1` [Example 14, 1-(7-(2-(1-acetylpiperidin-4-yl)-7-(5-methyl-1H-indazol-4-yl)-8-(2,2,2-trifluoroethoxy)-6-vinylquinazolin-4-yl)-2,7-diazaspiro[3.5]nonan-2-yl)prop-2-en-1-one] had an IC50 in the data set with MIA-PACA-2 cells of 40.6 nM. In addition, in data set [1], the Papp A→B at 120 min, 5 μM was 1.33 ×10⁻⁶ cm/s; the Papp B→A at 120 min, 5 μM amounted to 5.82 ×10⁻⁶ cm/s; the efflux ratio at 120 min, 5 μM was determined as 4.36. Besides, it took 6.4 nM to reach half-maximal inhibition in the data set on H358 cells (IC50).

In the data set with MIA-PACA-2 cells, `C=CC(=O)N1CC2(CCN(c3nc(C4CCN(C5CCOCC5)CC4)nc4c(OCC(F)(F)F)c(-c5c(C)ccc6[nH]ncc56)c(C=C)cc34)CC2)C1` [Example 58, 1-(7-(7-(5-methyl-1H-indazole-4-yl)-2-(1-(tetrahydro-2H-pyran-4-yl)piperidin-4-yl)-8-(2,2,2-trifluoroethoxy)-6-vinylquinazolin-4-yl)-2,7-diazspiro [3.5]nonan-2-yl) propyl-2-en-1-one] had an IC50 of 2.6 nM. For the same molecule, in data set [1], the Papp A→B at 120 min, 5 μM was found to be 0.34 ×10⁻⁶ cm/s; the Papp B→A at 120 min, 5 μM worked out at 10.3 ×10⁻⁶ cm/s; the efflux ratio at 120 min, 5 μM worked out at 30.6. In the data set on H358 cells, this molecule showed an IC50 of 4.4 nM.

As for `C=CC(=O)N1CC2(CCN(c3nc(C4CCN(C5CCN(C(C)=O)CC5)CC4)nc4c(OCC(F)(F)F)c(-c5c(C)ccc6[nH]ncc56)c(C=C)cc34)CC2)C1` [Example 72, 1-(7-(2-(1acetyl-[1,4'-bipiperidine]-4-yl)-7-(5-methyl-1H-indazole-4-yl)-8-(2,2,2-trifluoroethoxy)-6-vinylquinazolin-4-yl)-2,7-diazspiro [3.5]nonan-2-yl) propyl-2-en-1-one], the IC50 stood at 5.9 nM in the data set on MIA-PACA-2 cells and 5.2 nM in the data set on H358 cells.

For the molecule `C=CC(=O)N1CC2(CCN(c3nc(C4CCN(C5CCC(O)CC5)CC4)nc4c(OCC(F)(F)F)c(-c5c(C)ccc6[nH]ncc56)c(C=C)cc34)CC2)C1` (stereo not shown) [Example 73], the IC50 with MIA-PACA-2 cells stood at 24.1 nM; with H358 cells it was 24.3 nM.

With `C=CC(=O)N1CC2(CCN(c3nc(C4CCN(C5CCN(C6CC6)CC5)CC4)nc4c(OCC(F)(F)F)c(-c5c(C)ccc6[nH]ncc56)c(C=C)cc34)CC2)C1` [Example 74, 1-(7-(2-(1′-cyclopropyl-[1,4′-bipiperidine]-4-yl)-7-(5-methyl-1H-indazole-4-yl)-8-(2,2,2-trifluoroethoxy)-6-vinylquinazolin-4-yl)-2,7-diazspiro [3.5]nonan-2-yl) propyl-2-en-1-one], the IC50 in the data set on MIA-PACA-2 cells worked out at 10.3 nM; with H358 cells, 6.7 nM.

Consider `C=CC(=O)N1CC2(CCN(c3nc(C4CCN(CCF)CC4)nc4c(OCC(F)(F)F)c(-c5c(C)ccc6[nH]ncc56)c(C=C)cc34)CC2)C1` [Example 75, 1-(7-(2-(1-(2-(fluoroethyl))piperidin-4-yl)-7-(5-methyl-1H-indazole-4-yl)-8-(2,2,2-trifluoroethoxy)-6-vinylquinazolin-4-yl)-2,7-diazarospiro [3.5]nonan-2-yl) propyl-2-en-1-one], for which the IC50 with MIA-PACA-2 cells was found to be 3.6 nM; with H358 cells, 2.6 nM.

On to `C=CC(=O)N1CC2(CCN(c3nc(C4CCN(CC5CC(F)(F)C5)CC4)nc4c(OCC(F)(F)F)c(-c5c(C)ccc6[nH]ncc56)c(C=C)cc34)CC2)C1` [Example 76, 1-(7-(2-(1-((3,3-difluorocyclobutyl)methyl)piperidin-4-yl)-7-(5-methyl-1H-indazole-4-yl)-8-(2,2,2-trifluoroethoxy)-6-vinylquinazolin-4-yl)-2,7-diazspiro [3.5]nonan-2-yl) propyl-2-en-1-one], for which the results for the IC50 with MIA-PACA-2 cells and with H358 cells were 21.4 nM and 19.3 nM, respectively.

Turning to `C=CC(=O)N1CC2(CCN(c3nc(C4CCN(Cc5ccccc5)CC4)nc4c(OCC(F)(F)F)c(-c5c(C)ccc6[nH]ncc56)c(C=C)cc34)CC2)C1` [Example 77, 1-(7-(2-(1-benzylpiperidin-4-yl)-7-(5-methyl-1H-indazol-4-yl)-8-(2,2,2-trifluoroethoxy)-6-vinylquinazolin-4-yl)-2,7-diazarospiro [3.5]nonan-2-yl) propyl-2-en-1-one], the IC50 was 33.7 nM in the data set on MIA-PACA-2 cells and 37.6 nM with H358 cells.

On to `C=CC(=O)N1CC2(CCN(c3nc(C4CCN(Cc5cnn(C)c5)CC4)nc4c(OCC(F)(F)F)c(-c5c(C)ccc6[nH]ncc56)c(C=C)cc34)CC2)C1` [Example 78, 1-(7-(7-(5-methyl-1H-indazol-4-yl)-2-(1-((1-methyl-1H-pyrazol-4-yl)methyl)piperidin-4-yl]-8-(2,2,2-trifluoroethoxy)-6-vinylquinazolin-4-yl)-2,7-diazarospiro [3.5]nonan-2-yl) propyl-2-en-1-one], for which the IC50 was found to be 62.8 nM in the data set on MIA-PACA-2 cells and 27.2 nM with H358 cells.

`C=CC(=O)N1CC2(CCN(c3nc(C4CCN(C5CCOC5)CC4)nc4c(OCC(F)(F)F)c(-c5c(C)ccc6[nH]ncc56)c(C=C)cc34)CC2)C1` (stereo not shown) [Example 79, 1-(7-(7-(5-methyl-1H-indazol-4-yl)-2-(1-(tetrahydrofuran-3-yl)piperidin-4-yl)-8-(2,2,2-trifluoroethoxy)-6-vinylquinazolin-4-yl)-2,7-diazspiro [3.5]nonan-2-yl) propyl-2-en-1-one]: the results for the IC50 in the data set on MIA-PACA-2 cells and with H358 cells were 3.5 nM and 2.7 nM, respectively.

Regarding `C=CC(=O)N1CC2(CCN(c3nc(C4CCN(C5CC(O)C5)CC4)nc4c(OCC(F)(F)F)c(-c5c(C)ccc6[nH]ncc56)c(C=C)cc34)CC2)C1` (stereo not shown) [Example 80], the values for the IC50 in the data set on MIA-PACA-2 cells and with H358 cells were 46.1 nM and 14.9 nM, respectively.

With `C=CC(=O)N1CC2(CCN(c3nc(C4CCN(C5CCN(C(=O)OCC)CC5)CC4)nc4c(OCC(F)(F)F)c(-c5c(C)ccc6[nH]ncc56)c(C=C)cc34)CC2)C1` [Example 82, Ethyl 4-(4-(2-acryloyl-2,7-diazspiro [3.5]nonan-7-yl)-7-(5-methyl-1H-indazole-4-yl)-8-(2,2,2-trifluoroethoxy) 6-vinylquinazolin-2-yl)-[1,4-bipiperidine]-1′-carboxylate], the results for the IC50 with MIA-PACA-2 cells and in the data set with H358 cells were 12.5 nM and 7.6 nM, respectively.

Regarding `C=CC(=O)N1CC2(CCN(c3nc(C4CCN(C5CC6CCC(C5)N6C)CC4)nc4c(OCC(F)(F)F)c(-c5c(C)ccc6[nH]ncc56)c(C=C)cc34)CC2)C1` (stereo not shown) [Example 83, 1-(7-(7-(5-methyl-1H-indazole-4-yl)-2-(1-(8-methyl-8-azabicyclo [3.2.1]cindan-3-yl]piperidin-4-yl)8(2,2,2-trifluoroethoxy)-6-vinylquinazolin-4-yl)-2,7-diazspiro [3.5]nonan-2-yl) propyl-2-en-1-one], the IC50 with MIA-PACA-2 cells worked out at 136 nM; in the data set on H358 cells it was 159 nM.

Turning to `C=Cc1cc2c(N3CCC4(CC3)CN(C(=O)C(=C)F)C4)nc(C3CCN(C)CC3)nc2c(OCC(F)(F)F)c1-c1c(C)ccc2[nH]ncc12` [Example 84, 2-Fluoro-1-(7-(7-(5-methyl-1H-indazol-4-yl)-2-(1-methylpiperidin-4-yl)-8-(2,2,2-trifluoroethoxy)-6-vinylquinazolin-4-yl)-2,7-diazaspiro[3.5]nonan-2-yl)propan-2-en-1-one], the IC50 in the data set with MIA-PACA-2 cells is 60.3 nM; in the data set on H358 cells, 16.5 nM.

Take `C=CC(=O)N1CC2(CCN(c3nc(C4CCN(C(=O)OC)CC4)nc4c(OCC(F)F)c(-c5c(C)ccc6[nH]ncc56)c(C=C)cc34)CC2)C1` [Example 85, Methyl 4-(4-(2-acryloyl-2,7-diazazospiro [3.5]nonan-7-yl)-8-(2,2-difluoroethoxy)-7-(5-methyl-1H-indazole-4-yl)-6-vinylquinazolin-2-yl) piperidine-1-carboxylic acid]: the values for the IC50 in the data set on MIA-PACA-2 cells and in the data set on H358 cells were 91.7 nM and 124 nM, respectively.

On to `C=Cc1cc2c(N3CCC4(CC3)CN(C(=O)C(=C)F)C4)nc(C3CCN(CCC#N)CC3)nc2c(OCC(F)(F)F)c1-c1c(C)ccc2[nH]ncc12` [Example 86, 3-(4-(4-(2-(2-Fluoroacryloyl)-2,7-diazspiro [3.5]nonan-7-yl)-7-(5-methyl-1H-indazole-4-yl)-8-(2,2,2-trifluoroethoxy)-6-vinylquinazolin-2-yl)piperidin-1-yl) propionitrile], for which the IC50 was 208 nM in the data set on MIA-PACA-2 cells and 85.8 nM in the data set with H358 cells.

Turning to `Cc1ccc2[nH]ncc2c1-c1c(Cl)cc2c(N3CCC4(CC3)CN(C(=O)/C=C/CN(C)C)C4)nc(C3CCN(C)CC3)nc2c1OCC(F)(F)F` [Example 87, (E)-1-(7-(6-chloro-7-(5-methyl-1H-indazol-4-yl)-2-(1-methylpiperidine-4-yl)-8-(2,2,2-trifluoroethoxy)quinazolin-4-yl)-2,7-diazaspiro[3.5]nonan-2-yl)-4-(dimethylamino) but-2-en-1-one], the figures for the IC50 in the data set on MIA-PACA-2 cells and with H358 cells were 2190 nM and 1940 nM, respectively.
